This note sets out measurements from patent US20260356840A1, “[1,2,4]TRIAZOLO[1,5-A]PYRIMIDINONE WRN INHIBITORS” (Nimbus Wadjet, Inc., priority 2023, published 2026).

Broadly, the IC50 is the concentration at which inhibition is half-maximal.

The structures appear in SMILES notation.

For the assay, the target named is T1, human Werner helicase (Uniprot Q14191, amino acids 517-1235 with L1074F point mutation), WRN-BV08 (Homo sapiens, UniProt Q14191, L1074F).
T1 construct: Uniprot Q14191, amino acids 517-1235 with L1074F point mutation; TEV cleavable 8xHis tag (C, cleaved yes); made in house; host or cells: Sf9 insect cells (baculovirus, pFastBac)
T1 sequence (Q14191 517-1235 L1074F): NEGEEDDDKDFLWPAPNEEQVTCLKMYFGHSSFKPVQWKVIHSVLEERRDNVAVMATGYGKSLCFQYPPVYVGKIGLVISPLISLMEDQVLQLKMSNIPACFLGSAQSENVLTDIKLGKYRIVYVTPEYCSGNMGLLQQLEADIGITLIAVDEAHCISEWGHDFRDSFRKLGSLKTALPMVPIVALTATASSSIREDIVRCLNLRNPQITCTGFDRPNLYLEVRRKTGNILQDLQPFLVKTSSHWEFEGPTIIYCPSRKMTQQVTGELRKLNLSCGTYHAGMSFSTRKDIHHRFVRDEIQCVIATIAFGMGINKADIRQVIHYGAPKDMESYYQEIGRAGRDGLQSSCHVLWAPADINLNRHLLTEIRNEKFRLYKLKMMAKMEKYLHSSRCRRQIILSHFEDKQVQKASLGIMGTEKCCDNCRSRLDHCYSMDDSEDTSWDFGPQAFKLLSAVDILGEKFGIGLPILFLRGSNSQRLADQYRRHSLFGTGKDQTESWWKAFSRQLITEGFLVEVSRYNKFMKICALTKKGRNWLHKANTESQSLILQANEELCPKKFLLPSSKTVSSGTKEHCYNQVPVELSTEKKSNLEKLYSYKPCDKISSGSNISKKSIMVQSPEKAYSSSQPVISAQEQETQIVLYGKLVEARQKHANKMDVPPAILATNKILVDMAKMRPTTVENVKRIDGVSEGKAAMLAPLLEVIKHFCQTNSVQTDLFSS
As to the kind of experiment: WRN (BV08) ADP-Glo Assay. It is filed as biochemical. (In general: ADP-Glo first removes unused ATP, then detects ADP through luciferase.)
In turn, `CCc1c(N2CCN(C(=O)C(F)F)CC2)c(=O)n2nc(-c3ccnc(OC)c3)nc2n1CC(=O)Nc1ccc(C(F)(F)F)cc1Cl` [Compound I-53, N-[2-chloro-4-(trifluoromethyl)phenyl]-2-{6-[4-(2,2-difluoroacetyl)piperazin-1-yl]-5-ethyl-2-(2-methoxypyridin-4-yl)-7-oxo-4H,7H-[1,2,4]triazolo[1,5-a]pyrimidin-4-yl}acetamide] registered a half-maximal inhibitory concentration (IC50) of 0.005 to 0.05 µM. The compound `CCc1c(N2CCN(C(=O)c3cnn(C)c3)CC2)c(=O)n2nc(-c3cccnc3OC)nc2n1CC(=O)Nc1ccc(C(F)(F)F)cc1Cl` [Compound I-54, N-[2-chloro-4-(trifluoromethyl)phenyl]-2-[5-ethyl-2-(2-methoxypyridin-3-yl)-6-[4-(1-methyl-1H-pyrazole-4-carbonyl)piperazin-1-yl]-7-oxo-4H,7H-[1,2,4]triazolo[1,5-a]pyrimidin-4-yl]acetamide] gave an IC50 of 0.005 to 0.05 µM.

With `CCc1c(N2CCN(C(C)=O)CC2)c(=O)n2nc(-c3cnn(CC(C)(C)O)c3)nc2n1CC(=O)Nc1ccc(C(F)(F)F)cc1Cl` [Compound I-55, 2-[6-(4-acetylpiperazin-1-yl)-5-ethyl-2-[1-(2-hydroxy-2-methylpropyl)-1H-pyrazol-4-yl]-7-oxo-4H,7H-[1,2,4]triazolo[1,5-a]pyrimidin-4-yl]-N-[2-chloro-4-(trifluoromethyl)phenyl]acetamide], the half-inhibitory concentration (IC50) is 0.005 to 0.05 µM.

Compound `CCc1c(N2CCN(C(=O)c3cnn(C)c3)CC2)c(=O)n2nc(-c3cnn(CC(C)(C)O)c3)nc2n1CC(=O)Nc1ccc(C(F)(F)F)cc1Cl` [Compound I-56, N-[2-chloro-4-(trifluoromethyl)phenyl]-2-{5-ethyl-2-[1-(2-hydroxy-2-methylpropyl)-1H-pyrazol-4-yl]-6-[4-(1-methyl-1H-pyrazole-4-carbonyl)piperazin-1-yl]-7-oxo-4H,7H-[1,2,4]triazolo[1,5-a]pyrimidin-4-yl}acetamide] had an IC50 of 0.005 to 0.05 µM. With `CCc1c(N2CCN(C(=O)c3nc(C)cs3)CC2)c(=O)n2nc(-c3ccnc(OC)c3)nc2n1CC(=O)Nc1ccc(C(F)(F)F)cc1Cl` [Compound I-57, N-[2-chloro-4-(trifluoromethyl)phenyl]-2-[5-ethyl-2-(2-methoxypyridin-4-yl)-6-[4-(4-methyl-1,3-thiazole-2-carbonyl)piperazin-1-yl]-7-oxo-4H,7H-[1,2,4]triazolo[1,5-a]pyrimidin-4-yl]acetamide] the figure was 0.1 to 0.5 µM; with `CCc1c(N2CCN(C(=O)c3ncc(C)s3)CC2)c(=O)n2nc(-c3ccnc(OC)c3)nc2n1CC(=O)Nc1ccc(C(F)(F)F)cc1Cl` [Compound I-58, N-[2-chloro-4-(trifluoromethyl)phenyl]-2-[5-ethyl-2-(2-methoxypyridin-4-yl)-6-[4-(5-methyl-1,3-thiazole-2-carbonyl)piperazin-1-yl]-7-oxo-4H,7H-[1,2,4]triazolo[1,5-a]pyrimidin-4-yl]acetamide], 0.05 to 0.1 µM; with `CCc1c(N2CCN(C(=O)c3cnc(C)s3)CC2)c(=O)n2nc(-c3ccnc(OC)c3)nc2n1CC(=O)Nc1ccc(C(F)(F)F)cc1Cl` [Compound I-59, N-[2-chloro-4-(trifluoromethyl)phenyl]-2-[5-ethyl-2-(2-methoxypyridin-4-yl)-6-[4-(2-methyl-1,3-thiazole-5-carbonyl)piperazin-1-yl]-7-oxo-4H,7H-[1,2,4]triazolo[1,5-a]pyrimidin-4-yl]acetamide], 0.005 to 0.05 µM. Regarding `CCc1c(N2CCN(C(=O)c3cnn(C4CC4)c3)CC2)c(=O)n2nc(-c3ccnc(OC)c3)nc2n1CC(=O)Nc1ccc(C(F)(F)F)cc1Cl` [Compound I-60, N-[2-chloro-4-(trifluoromethyl)phenyl]-2-{6-[4-(1-cyclopropyl-1H-pyrazole-4-carbonyl)piperazin-1-yl]-5-ethyl-2-(2-methoxypyridin-4-yl)-7-oxo-4H,7H-[1,2,4]triazolo[1,5-a]pyrimidin-4-yl}acetamide], the IC50 is 0.005 to 0.05 µM.

On to `CCc1c(N2CCN(C(=O)c3cnn(C(F)F)c3)CC2)c(=O)n2nc(-c3ccnc(OC)c3)nc2n1CC(=O)Nc1ccc(C(F)(F)F)cc1Cl` [Compound I-61, N-[2-chloro-4-(trifluoromethyl)phenyl]-2-(6-{4-[1-(difluoromethyl)-1H-pyrazole-4-carbonyl]piperazin-1-yl}-5-ethyl-2-(2-methoxypyridin-4-yl)-7-oxo-4H,7H-[1,2,4]triazolo[1,5-a]pyrimidin-4-yl)acetamide], for which the 50% inhibitory concentration (IC50) is 0.005 to 0.05 µM. In turn, `CCc1c(N2CCN(C(=O)c3c(C)nn(C)c3OC)CC2)c(=O)n2nc(-c3ccnc(OC)c3)nc2n1CC(=O)Nc1ccc(C(F)(F)F)cc1Cl` [Compound I-62, N-[2-chloro-4-(trifluoromethyl)phenyl]-2-{5-ethyl-6-[4-(5-methoxy-1,3-dimethyl-1H-pyrazole-4-carbonyl)piperazin-1-yl]-2-(2-methoxypyridin-4-yl)-7-oxo-4H,7H-[1,2,4]triazolo[1,5-a]pyrimidin-4-yl}acetamide] displayed a concentration for half-maximal inhibition (IC50) of 0.005 to 0.05 µM. With `CCc1c(N2CCN(C(=O)c3cnnn3C)CC2)c(=O)n2nc(-c3ccnc(OC)c3)nc2n1CC(=O)Nc1ccc(C(F)(F)F)cc1Cl` [Compound I-63, N-[2-chloro-4-(trifluoromethyl)phenyl]-2-[5-ethyl-2-(2-methoxypyridin-4-yl)-6-[4-(1-methyl-1H-1,2,3-triazole-5-carbonyl)piperazin-1-yl]-7-oxo-4H,7H-[1,2,4]triazolo[1,5-a]pyrimidin-4-yl]acetamide] the figure was 0.005 to 0.05 µM; with `CCc1c(N2CCN(C(=O)c3cnn(C)c3)CC2)c(=O)n2nc(-c3ccnc(OC)n3)nc2n1CC(=O)Nc1ccc(C(F)(F)F)cc1Cl` [Compound I-64, N-[2-chloro-4-(trifluoromethyl)phenyl]-2-[5-ethyl-2-(2-methoxypyrimidin-4-yl)-6-[4-(1-methyl-1H-pyrazole-4-carbonyl)piperazin-1-yl]-7-oxo-4H,7H-[1,2,4]triazolo[1,5-a]pyrimidin-4-yl]acetamide], 0.005 to 0.05 µM; with `CCc1c(N2CCN(C(=O)c3cc(C)no3)CC2)c(=O)n2nc(-c3ccnc(OC)c3)nc2n1CC(=O)Nc1ccc(C(F)(F)F)cc1Cl` [Compound I-65, N-[2-chloro-4-(trifluoromethyl)phenyl]-2-[5-ethyl-2-(2-methoxypyridin-4-yl)-6-[4-(3-methyl-1,2-oxazole-5-carbonyl)piperazin-1-yl]-7-oxo-4H,7H-[1,2,4]triazolo[1,5-a]pyrimidin-4-yl]acetamide], 0.005 to 0.05 µM.

The compound `CCc1c(N2CCN(C(=O)c3ccnn3C)CC2)c(=O)n2nc(-c3ccnc(OC)c3)nc2n1CC(=O)Nc1ccc(C(F)(F)F)cc1Cl` [Compound I-66, N-[2-chloro-4-(trifluoromethyl)phenyl]-2-[5-ethyl-2-(2-methoxypyridin-4-yl)-6-[4-(1-methyl-1H-pyrazole-5-carbonyl)piperazin-1-yl]-7-oxo-4H,7H-[1,2,4]triazolo[1,5-a]pyrimidin-4-yl]acetamide] came in with an IC50 of 0.005 to 0.05 µM. `CCc1c(N2CCN(C(=O)c3cnc(C)o3)CC2)c(=O)n2nc(-c3ccnc(OC)c3)nc2n1CC(=O)Nc1ccc(C(F)(F)F)cc1Cl` [Compound I-67, N-[2-chloro-4-(trifluoromethyl)phenyl]-2-[5-ethyl-2-(2-methoxypyridin-4-yl)-6-[4-(2-methyl-1,3-oxazole-5-carbonyl)piperazin-1-yl]-7-oxo-4H,7H-[1,2,4]triazolo[1,5-a]pyrimidin-4-yl]acetamide] showed an IC50 of 0.005 to 0.05 µM.
